Measurements as given in patent US8562949B2, “Radiolabeled dihydrotetrabenazine derivatives and their use as imaging agents” (The Trustees of the University of Pennsylvania, priority 2006, dated 2013).

Assay: Human radiation dosimetry estimates from mouse biodistribution
Details: adult male model
Text: From the organ biodistribution data in Table 4 of Example 7, human radiation dosimetry estimates were calculates. In the mass based extrapolation, the concentration in the animal organs is converted to a concentration in human organs by multiplying the animal concentration by a ratio of the total body weight of the animals and humans (Kirschner, et al., 1975). Then the percent in the human organs is derived using organ masses taken from a standard model of the human body for adult males (Cristy and Eckerman, 1987). Data were fit using the SAAM II software (Foster and Barrett, 1999). Time integrals of activity were calculated and converted to residence times (Loevinger, et al., 1988); organ residence times were entered into the OLIND/EXM software (STabin, et al., 2005) using the adult male model. No excretion of activity was assumed; any activity not accounted for was considered to be uniformly distributed throughout the remainder of the body or removed only by physical decay. […] The estimated effective dose (0.047 rem/mCi) also compares favorably to radiation doses received with other approved radiopharmaceuticals.

human radiation dose, liver and bone surface: around 0.11 rem/mCi
human radiation dose, most organs: 0.04-0.06 rem/mCi
Structure (SMILES): COc1cc2c(cc1OCCC[18F])CCN1C[C@@H](CC(C)C)[C@H](O)C[C@H]21 [[^18F]-(+)-6b]
